Test results reported in PubChem BioAssay (NCI).
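Interpolation was linear, between the two tested concentrations surrounding the appropriate level; five concentrations were tested over 48 hours in 96-well plates. At the TGI there is no net growth.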

How the values were obtained:
Experiment in all cases: NCI-60 cell line screen, 48 h
[1] = tested on: NCI-H522 lung
[2] = tested on: DMS 273 small cell lung
[3] = tested on: U251 CNS
[4] = tested on: M14 melanoma
[5] = tested on: HCT-15 colon
[6] = tested on: SK-MEL-2 melanoma
[7] = tested on: OVCAR-3 ovarian
[8] = tested on: XF 498 CNS
[9] = tested on: OVCAR-8 ovarian
[10] = tested on: MOLT-4 leukemia
[11] = tested on: HOP-92 NSCLC
[12] = tested on: CAKI-1 renal
[13] = tested on: TK-10 renal
[14] = tested on: SW-620 colon
[15] = tested on: SF-268 CNS
[16] = tested on: SNB-19 CNS
[17] = tested on: KM20L2 colon
[18] = tested on: SN12C renal
[19] = tested on: LOX IMVI melanoma
[20] = tested on: SNB-75 CNS
[21] = tested on: NCI-H226 lung
[22] = tested on: LXFL 529 NSCLC
[23] = tested on: 786-0 renal
[24] = tested on: UACC-62 melanoma
[25] = tested on: SK-MEL-5 melanoma
[26] = tested on: K-562 leukemia
[27] = tested on: SF-539 CNS
[28] = tested on: SR leukemia
[29] = tested on: SK-MEL-28 melanoma
[30] = tested on: NCI-H460 lung
[31] = tested on: HT29 colon
[32] = tested on: RXF 393 renal
[33] = tested on: HL-60(TB) leukemia
[34] = tested on: SNB-78 CNS
[35] = tested on: A549 NSCLC
[36] = tested on: HOP-62 NSCLC
[37] = tested on: UO-31 renal
[38] = tested on: CCRF-CEM leukemia
[39] = tested on: EKVX NSCLC
[40] = tested on: OVCAR-5 ovarian
[41] = tested on: RPMI-8226 leukemia
[42] = tested on: ACHN renal
[43] = tested on: UACC-257 melanoma
[44] = tested on: HCT-116 colon
[45] = tested on: SK-OV-3 ovarian
[46] = tested on: IGROV1 ovarian
[47] = tested on: COLO 205 colon
[48] = tested on: KM12 colon
[49] = tested on: NCI-H23 lung
[50] = tested on: A498 renal
[51] = tested on: SF-295 CNS
[52] = tested on: OVCAR-4 ovarian

`CN(C)C(=O)Nc1c([N+](=O)[O-])cc(C(F)(F)F)cc1[N+](=O)[O-]` showed a TGI [1] of 77.5 µM, a TGI [2] greater than 100 µM and a TGI [3] greater than 100 µM. The TGI [4] was greater than 100 µM, the TGI [5] was greater than 100 µM and the TGI [6] was greater than 100 µM. It also gave a TGI [7] of 53.7 µM, a TGI [8] of 80.8 µM and a TGI [9] greater than 100 µM. It also gave a TGI [10] greater than 100 µM, a TGI [11] greater than 100 µM and a TGI [12] greater than 100 µM. For the same compound, the TGI [13] was greater than 100 µM, the TGI [14] was greater than 100 µM and the TGI [15] was greater than 100 µM. It also gave a TGI [16] greater than 100 µM, a TGI [17] of 59.3 µM and a TGI [18] greater than 100 µM. It also gave a TGI [19] greater than 100 µM, a TGI [20] greater than 100 µM and a TGI [21] greater than 100 µM. For the same compound, the TGI [22] was greater than 100 µM, the TGI [23] was greater than 100 µM and the TGI [24] was greater than 100 µM. For the same compound, the TGI [25] was greater than 100 µM, the TGI [26] was greater than 100 µM and the TGI [27] was greater than 100 µM. For the same compound, the TGI [28] was greater than 100 µM, the TGI [29] was greater than 100 µM and the TGI [30] was greater than 100 µM. For the same compound, the TGI [31] was greater than 100 µM, the TGI [32] was greater than 100 µM and the TGI [33] was 48 µM. The TGI [34] was greater than 100 µM, the TGI [35] was greater than 100 µM and the TGI [36] was greater than 100 µM. It also gave a TGI [37] greater than 100 µM, a TGI [38] greater than 100 µM and a TGI [39] greater than 100 µM. The TGI [40] was greater than 100 µM, the TGI [41] was greater than 100 µM and the TGI [42] was greater than 100 µM. The TGI [43] was 84.3 µM, the TGI [44] was greater than 100 µM and the TGI [45] was greater than 100 µM. For the same compound, the TGI [46] was greater than 100 µM, the TGI [47] was 69.3 µM and the TGI [48] was greater than 100 µM. It also gave a TGI [49] greater than 100 µM, a TGI [50] greater than 100 µM and a TGI [51] greater than 100 µM. It also gave a TGI [52] greater than 100 µM.
